Test results taken from US20100120700A1, “METHODS AND COMPOSITIONS FOR TREATING CERVICAL CANCER” (priority 2000, published 2010).
Values joined by “and” are separate entries in the source; they are usually repeats but may differ in a detail not shown here. Identical values can stand only once.

Assays:
Assay in all cases: G assay PDZ-PL binding
[1] = target: T1, Syntrophin gamma 1 domain 1 (Homo sapiens, UniProt Q9NSN8); conditions: peptide 10 uM, protein 5
T1 construct: made in house; host or cells: E. coli (DH5alpha, BL21 or JM109), vector pGEX-3X
T1 sequence (Q9NSN8 49-149): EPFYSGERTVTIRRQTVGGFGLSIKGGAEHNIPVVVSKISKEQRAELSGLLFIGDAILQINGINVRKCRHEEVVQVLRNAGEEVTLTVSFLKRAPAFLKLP
Protocol: (§1) (1) A PDZ-domain polypeptide is bound to a surface, e.g. a protein binding surface. In a preferred embodiment, a GST/PDZ fusion protein containing one or more PDZ domains is bound to a polystyrene 96-well plate. […] In one embodiment, the GST/PDZ fusion protein is bound via an anti-GST antibody that is coated onto the 96-well plate. Adequate binding to the plate can be achieved when: • a. 100 uL per well of 5 ug/mL goat anti-GST polyclonal antibody (Pierce) in PBS is added to a polystyrene 96-well plate (e.g., Num Polysorb) at 4° C. for 12 hours. • b. The plate is blocked by addition of 200 uL per well of PBS/BSA for 2 hours at 4° C. • c. The plate is washed 3 times with PBS. • d. 50 uL per well of 5 ug/mL GST/PDZ fusion protein) or, as a negative control, GST polypeptide alone (i.e. not a fusion protein) in PBS/BSA is added to the plate for 2 hours at 4° C. • e. The plate is again washed 3 times with PBS.
(§2) (2) Biotinylated PL peptides are allowed to react with the surface by addition of 50 uL per well of 20 uM solution of the biotinylated peptide in PBS/BSA for 10 minutes at 4° C., followed by an additional 20 minute incubation at 25° C.
(§3) (3) The binding of the biotinylated peptide to the GST/PDZ fusion protein surface can be detected using a variety of methods and detectors known to one of skill in the art. In one embodiment, 100 uL per well of 0.5 ug/mL streptavidin-horse radish peroxidase (HRP) conjugate dissolved in BSA/PBS is added and allowed to react for 20 minutes at 4° C. The plate is then washed 5 times with 50 mM Tris pH 8.0 containing 0.2% Tween 20, and developed by addition of 100 uL per well of HRP-substrate solution (TMB, Dako) for 20 minutes at room temperature (RT). The reaction of the HRP and its substrate is terminated by addition of 100 uL per well of 1M sulfuric acid, and the absorbance of each well of the plate is read at 450 nm.
(§4) (4) Specific binding of a PL peptide and a PDZ domain polypeptide is determined by comparing the signal from the well(s) in which the PL peptide and PDZ domain polypeptide are combined, with the background signal(s). The background signal is the signal found in the negative control(s). Typically a specific or selective reaction will be at least twice background signal, more typically more than 5 times background, and most typically 10 or more times the background signal. In addition, a statistically significant reaction will involve multiple measurements of the reaction with the signal and the background differing by at least two standard errors, more typically four standard errors, and most typically six or more standard errors. Correspondingly, a statistical test (e.g. a T-test) comparing repeated measurements of the signal with-repeated measurements of the background will result in a p-value<0.05, more typically a p-value<0.01, and most typically a p-value<0.001 or less. As noted, in an embodiment of the “G” assay, the signal from binding of a given PL peptide to immobilized (surface bound) GST polypeptide alone is one suitable negative control (sometimes referred to as “B 1”). Because all measurement are done in multiples (i.e. at least duplicate) the arithmetic mean (or, equivalently, average.) of several measurements is used in determining the binding, and the standard error of the mean is used in determining the probable error in the measurement of the binding. The standard error of the mean of N measurements equals the square root of the following: the sum of the squares of the difference between each measurement and the mean, divided by the product of (N) and (N−1). Thus, in one embodiment, specific binding of the PDZ protein to the platebound peptide is determined by comparing the mean signal (“mean S”) and standard error of the signal (“SE”) for a particular PL-PDZ combination with the mean B1. […]

[2] = target: T2, PDZK1 domain 3 (Homo sapiens, UniProt Q5T2W1); conditions: peptide 10 uM, protein 5
T2 construct: made in house; host or cells: E. coli (DH5alpha, BL21 or JM109)
Protocol: as §1, §2, §3, §4

[3] = target: T3, INADL domain 4 (Homo sapiens, UniProt Q8NI35); conditions: peptide 10 uM, protein 5
T3 construct: made in house; host or cells: E. coli (DH5alpha, BL21 or JM109)
T3 sequence (Q8NI35 with tags, fused parts or gaps): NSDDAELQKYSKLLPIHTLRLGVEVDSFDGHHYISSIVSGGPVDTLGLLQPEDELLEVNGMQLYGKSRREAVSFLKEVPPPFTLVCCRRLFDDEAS
Protocol: as §1, §2, §3, §4

[4] = target: T4, KIAA1526 #125.1 domain 1 (Homo sapiens, UniProt Q9P202); conditions: peptide 10 uM, protein 5
T4 construct: made in house; host or cells: E. coli (DH5alpha, BL21 or JM109)
T4 sequence (Q9P202 130-232): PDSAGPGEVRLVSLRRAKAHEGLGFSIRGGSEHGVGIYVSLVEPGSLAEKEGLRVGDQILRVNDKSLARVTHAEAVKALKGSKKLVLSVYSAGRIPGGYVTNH
Protocol: as §1, §2, §3, §4

[5] = target: T5, MAGI 1 domain 5 (Homo sapiens, UniProt Q96QZ7); conditions: peptide 10 uM, protein 5
T5 construct: made in house; host or cells: E. coli (DH5alpha, BL21 or JM109)
T5 sequence (Q96QZ7 988-1099): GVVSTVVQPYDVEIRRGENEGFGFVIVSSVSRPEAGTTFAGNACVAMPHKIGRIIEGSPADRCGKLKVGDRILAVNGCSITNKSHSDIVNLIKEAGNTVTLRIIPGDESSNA
Protocol: as §1, §2, §3, §4

[6] = target: T6, KIAA0382 domain 1 (Homo sapiens, UniProt Q9NZN5); conditions: peptide 10 uM, protein 5
T6 construct: made in house; host or cells: E. coli (DH5alpha, BL21 or JM109), vector pGEX-3X
T6 sequence (Q9NZN5 with tags, fused parts or gaps): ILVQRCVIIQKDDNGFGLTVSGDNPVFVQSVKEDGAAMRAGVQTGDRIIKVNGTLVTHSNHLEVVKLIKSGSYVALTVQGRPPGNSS
Protocol: as §1, §2, §3, §4

[7] = target: T7, PTN-4 domain 1 (Homo sapiens, UniProt P29074); conditions: peptide 10 uM, protein 5
T7 construct: made in house; host or cells: E. coli (DH5alpha, BL21 or JM109), vector pGEX-3X
T7 sequence (P29074 518-605): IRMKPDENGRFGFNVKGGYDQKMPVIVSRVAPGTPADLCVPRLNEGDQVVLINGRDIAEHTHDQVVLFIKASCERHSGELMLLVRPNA
Protocol: as §1, §2, §3, §4

[8] = target: T8, ZO-2 domain 1 (Homo sapiens, UniProt Q9UDY2); conditions: peptide 10 uM, protein 5
T8 construct: made in house; host or cells: E. coli (DH5alpha, BL21 or JM109), vector pGEX-3X
T8 sequence (Q9UDY2 27-122): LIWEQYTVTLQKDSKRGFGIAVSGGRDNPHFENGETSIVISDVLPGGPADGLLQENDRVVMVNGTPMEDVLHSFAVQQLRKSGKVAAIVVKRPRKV
Protocol: as §1, §2, §3, §4

[9] = target: T9, PSD95 domain 2 (Homo sapiens, UniProt P78352); conditions: vs GST only well, peptide 10 uM, protein 5
T9 construct: made in house; host or cells: E. coli (DH5alpha, BL21 or JM109)
Protocol: as §1, §2, §3, §4

[10] = target: T10, Serine Protease domain 1 (Homo sapiens, UniProt O43464); conditions: peptide 10 uM, protein 5
T10 construct: made in house; host or cells: E. coli (DH5alpha, BL21 or JM109)
T10 sequence (O43464 344-452): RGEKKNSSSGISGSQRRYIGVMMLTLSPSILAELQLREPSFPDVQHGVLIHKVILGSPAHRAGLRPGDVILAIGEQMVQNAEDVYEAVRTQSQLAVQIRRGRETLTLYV
Protocol: as §1, §2, §3, §4

[11] = target: T11, DLG2 #290.1 domain 2 (Homo sapiens, UniProt Q15700, K278N); conditions: peptide 10 uM, protein 5
T11 construct: made in house; host or cells: E. coli (DH5alpha, BL21 or JM109)
T11 sequence (Q15700 whole entry, looked up, the tested form differs by isoform, tags, fused parts or gaps, stated change not applied): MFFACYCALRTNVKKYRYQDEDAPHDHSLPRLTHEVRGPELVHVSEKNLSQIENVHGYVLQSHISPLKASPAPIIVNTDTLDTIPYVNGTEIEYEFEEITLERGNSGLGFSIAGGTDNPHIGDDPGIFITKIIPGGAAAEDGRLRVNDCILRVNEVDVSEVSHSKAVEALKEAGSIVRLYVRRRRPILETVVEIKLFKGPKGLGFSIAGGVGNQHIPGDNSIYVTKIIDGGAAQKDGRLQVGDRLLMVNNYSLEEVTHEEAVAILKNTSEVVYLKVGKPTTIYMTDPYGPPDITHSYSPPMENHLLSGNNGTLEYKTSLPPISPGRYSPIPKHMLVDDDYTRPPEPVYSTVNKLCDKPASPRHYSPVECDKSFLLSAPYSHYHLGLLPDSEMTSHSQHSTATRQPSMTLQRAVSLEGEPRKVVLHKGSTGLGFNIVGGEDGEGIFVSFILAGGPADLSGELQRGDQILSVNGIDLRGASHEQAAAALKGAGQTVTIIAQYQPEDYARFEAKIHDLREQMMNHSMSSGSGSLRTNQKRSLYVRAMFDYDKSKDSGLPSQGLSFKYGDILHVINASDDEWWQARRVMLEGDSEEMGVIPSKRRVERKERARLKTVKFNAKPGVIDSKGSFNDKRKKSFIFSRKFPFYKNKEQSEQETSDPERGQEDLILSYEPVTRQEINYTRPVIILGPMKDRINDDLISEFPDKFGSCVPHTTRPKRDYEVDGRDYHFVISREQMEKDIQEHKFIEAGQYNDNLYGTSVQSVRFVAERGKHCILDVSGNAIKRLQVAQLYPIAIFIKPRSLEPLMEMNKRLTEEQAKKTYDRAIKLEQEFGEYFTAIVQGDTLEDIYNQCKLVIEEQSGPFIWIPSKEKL
Protocol: as §1, §2, §3, §4

[12] = target: T12, KIAA1284 domain 1 (Homo sapiens, UniProt Q9ULD6); conditions: peptide 10 uM, protein 5
T12 construct: made in house; host or cells: E. coli (DH5alpha, BL21 or JM109)
T12 sequence (Q9ULD6 159-271): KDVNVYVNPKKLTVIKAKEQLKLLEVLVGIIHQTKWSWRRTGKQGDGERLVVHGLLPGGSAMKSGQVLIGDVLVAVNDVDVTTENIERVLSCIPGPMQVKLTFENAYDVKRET
Protocol: as §1, §2, §3, §4

[13] = target: T13, Magi2 domain 5 (Homo sapiens, UniProt Q86UL8); conditions: peptide 10 uM, protein 5
T13 construct: made in house; host or cells: E. coli (DH5alpha, BL21 or JM109), vector pGEX-3X
T13 sequence (Q86UL8 1134-1231): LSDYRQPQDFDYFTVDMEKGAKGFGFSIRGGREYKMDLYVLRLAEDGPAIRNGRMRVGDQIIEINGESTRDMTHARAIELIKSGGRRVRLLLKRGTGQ
Protocol: as §1, §2, §3, §4

[14] = target: T14, INADL domain 8 (Homo sapiens, UniProt Q8NI35); conditions: peptide 10 uM, protein 5
T14 construct: made in house; host or cells: E. coli (DH5alpha or BL-21)
T14 sequence (Q8NI35 1425-1517): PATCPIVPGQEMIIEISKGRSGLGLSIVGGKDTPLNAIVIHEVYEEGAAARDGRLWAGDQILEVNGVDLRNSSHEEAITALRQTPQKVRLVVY
Protocol: as §1, §2, §3, §4

For “20 mer peptide corresponding to the C-terminus of HPV16 E6 (PDZ ligand), biotinylated in binding assays; ends SSRTRRETQL (SEQ ID NO: 13) [HPV E6 #16]”, which “Ave OD” value ([1]; A450 nm) is on record?
Its value is 0.3585 and 0.618.

And the “OD S/N” value ([1]; vs GST only well)?
The value was 2.00 and 3.08.

What about the “Ave OD” value ([2]; A450 nm) of the same substance?
The value was 0.5.

And the “OD S/N” value ([2]; vs GST only well)?
Its value is 1.92.

What about the “Ave OD” value ([3]; A450 nm) of the same substance?
Its value is 0.357.

And the “OD S/N” value ([3]; vs GST only well)?
The value was 2.15.

What about the “Ave OD” value ([4]; A450 nm) of the same substance?
The value was 1.379 and 0.7665.

And the “OD S/N” value ([4]; vs GST only well)?
The value was 6.69 and 3.57.

What about the “Ave OD” value ([5]; A450 nm) of the same substance?
Its value is 0.4325 and 0.541.

And the “OD S/N” value ([5]; vs GST only well)?
The value was 1.77 and 3.12.

And the “Ave OD” value ([6]; A450 nm)?
The value was 0.712 and 0.6995.

What about the “OD S/N” value ([6]; vs GST only well) of the same substance?
The value was 3.61 and 2.66.

And the “Ave OD” value ([7]; A450 nm)?
The value was 0.8085.

What about the “OD S/N” value ([7]; vs GST only well) of the same substance?
The value was 4.03.

What about the “Ave OD” value ([8]; A450 nm) of the same substance?
Its value is 0.3415 and 0.622.

And the “OD S/N” value ([8]; vs GST only well)?
Its value is 2.11 and 2.56.

And the “OD S/N” value [9]?
Its value is 12.23 and 12.53.

And the “Ave OD” value ([10]; A450 nm)?
Its value is 0.3425.

What about the “OD S/N” value ([10]; vs GST only well) of the same substance?
Its value is 1.55.

What about the “Ave OD” value ([11]; A450 nm) of the same substance?
Its value is 1.784 and 1.439.

And the “OD S/N” value ([11]; vs GST only well)?
Its value is 9.17 and 13.39.

What about the “Ave OD” value ([12]; A450 nm) of the same substance?
Its value is 0.473.

And the “OD S/N” value ([12]; vs GST only well)?
The value was 2.72.

And the “Ave OD” value ([13]; A450 nm)?
Its value is 0.651.

What about the “OD S/N” value ([13]; vs GST only well) of the same substance?
Its value is 3.93.

What about the “Ave OD” value ([14]; A450 nm) of the same substance?
The value was 0.3875.

And the “OD S/N” value ([14]; vs GST only well)?
Its value is 1.58.
